Where a name gives a salt, the structure may show the parent alone.
Tests used:
[1] = test system: ovariectomized rats (uterus); assay: Uterine weight in ovariectomized (OVX) rats, 4-day oral dosing; format: in vivo, female Sprague Dawley rats; settings: for Uterine Weight (% increase vs. OVX): OVX rats
Experimental: (§1) In the examples illustrating the methods of the present invention, a post-menopausal model was used in which effects of different treatments upon circulating lipids were determined.
(§2) Seventy-five day old female Sprague Dawley rats (weight range of 200 to 225g) were obtained from Charles River Laboratories (Portage, MI). The animals were either bilaterally ovariectomized (OVX) or exposed to a Sham surgical procedure at Charles River Laboratories, and then shipped after one week. Upon arrival, they were housed in metal hanging cages in groups of 3 or 4 per cage and had ad libitum access to food (calcium content approximately 0.5%) and water for one week. Room temperature was maintained at 22.2°±1.7° C. with a minimum relative humidity of 40%. The photoperiod in the room was 12 hours light and 12 hours dark.
(§3) Dosing Regimen Tissue Collection. After a one week acclimation period (therefore, two weeks post-OVX) daily dosing with test compound was initiated. 17α-ethynyl estradiol or the test compound were given orally, unless otherwise stated, as a suspension in 1% carboxymethylcellulose or dissolved in 20% cyclodextrin. Animals were dosed daily for 4 days. Following the dosing regimen, animals were weighed and anesthetized with a ketamine: xylazine (2:1, V:V) mixture and a blood sample was collected by cardiac puncture. The animals were then sacrificed by asphyxiation with CO2, the uterus was removed through a midline incision, and a wet uterine weight was determined.
(§4) Data presented in Table 1 below show comparative results among ovariectomized rats, rats treated with 17α-ethynyl estradiol (EE2; an orally available form of estrogen), and rats treated with certain compounds of the present invention. […] This uterine response to estrogen is well recognized in the art.
(§5) The data presented in the Tables 1 below reflects the response of 5 to 6 rats per treatment.

[2] = test system: Uterine Eosinophil Peroxidase (EPO); assay: Uterine Eosinophil Peroxidase (EPO) Assay / eosinophil infiltration into the uterus of ovariectomized rats; format: in vivo, female Sprague Dawley rats; parameters: Uterine EPO (V. max): unit not given here; settings: for Uterine EPO (V. max): OVX rats, oral
Experimental: as §1, §2, §3
Uterine Eosinophil Peroxidase (EPO) Assay. Uteri were kept at 4° C. until time of enzymatic analysis. The uteri were then homogenized in 50 volumes of 50 mM Tris buffer (pH-8.0) containing 0.005% Triton X-100. Upon addition of 0.01% hydrogen peroxide and 10 mM O-phenylenediamine (final concentrations) in Tris buffer, increase in absorbance was monitored for one minute at 450 nm. The presence of eosonophils in the uterus is an indication of estrogenic activity of a compound. The maximal velocity of a 15 second interval was determined over the initial, linear portion of the reaction curve.
As is expressed in the below data, estrogenicity also was assessed by evaluating the adverse response of eosinophil infiltration into the uterus.
as §5

[3] = test system: proximal tibiae metaphysis (bone mineral density) of ovariectomized rats; assay: Osteoporosis Test Procedure: protection against bone loss in ovariectomized rats, 35 days; format: in vivo; settings: oral; for Tibia BMD pQCT (% protection): OVX rats
From the text: Seventy-five day old female Sprague Dawley rats (weight range of 200 to 225g) were obtained from Charles River Laboratories (Portage, MI). The animals were either bilaterally ovariectomized (OVX) or exposed to a Sham surgical procedure at Charles River Laboratories, and then shipped after one week. Upon arrival, they were housed in metal hanging cages in groups of 3 or 4 per cage and had ad libitum access to food (calcium content approximately 0.5%) and water for one week. Room temperature was maintained at 22.2°±1.7° C. with a minimum relative humidity of 40%. The photoperiod in the room was 12 hours light and 12 hours dark. Following the General Preparation Procedure, infra, the rats were treated daily for 35 days (6 rats per treatment group) and sacrificed by carbon dioxide asphyxiation on the 36th day. The 35 day time period was sufficient to allow maximal reduction in bone density, measured as described herein. At the time of sacrifice, the uteri were removed, dissected free of extraneous tissue, and the fluid contents were expelled before determination of wet weight in order to confirm estrogen deficiency associated with complete ovariectomy. […] The uteri were then placed in 10% neutral buffered formalin to allow for subsequent histological analysis. The right femurs were excised and digitilized x-rays generated and analyzed by an image analysis program (NIH image) at the distal metaphysis. The proximal aspect of the tibiae from these animals were also scanned by quantitative computed tomography. In accordance with the above procedures, compounds of the present invention and ethynyl estradiol (EE2) in 20% hydroxypropyl β-cyclodextrin were orally administered to test animals. Proximal tibiae metaphysis data presented in Table 2 are the results of formula I compound treatments compared to intact and ovariectomized test animals. Results are reported as percent protection against bone loss which was calculated for individual animals by the following formula: % protection=(BMDtest BMDovx)/(BMDsham -BMDovx)×100.

[4] = test system: serum cholesterol; assay: Serum cholesterol in ovariectomized rats, 4-day oral dosing; format: in vivo, female Sprague Dawley rats; settings: for Serum Cholesterol (% decrease vs. OVX): OVX rats
Experimental: as §1, §2, §3
Cholesterol Analysis. Blood samples were allowed to clot at room temperature for 2 hours, and serum was obtained following centrifugation for 10 minutes at 3000 rpm. Serum cholesterol was determined using a Boehringer Mannheim Diagnostics high performance cholesterol assay. Briefly the cholesterol was oxidized to cholest-4-en-3-one and hydrogen peroxide. The hydrogen peroxide was then reacted with phenol and 4-amino-phenazone in the presence of peroxidase to produce a p-quinone imine dye, which was read spectrophotemetrically at 500 nm. Cholesterol concentration was then calculated against a standard curve. The entire assay was automated using a Biomek Automated Workstation.
as §4, §5

[5] = test system: MCF-7 breast adenocarcinoma cells; assay: MCF-7 Proliferation Assay; format: cell-based; settings: Homo sapiens, MCF7; MCF-7 cells, tritiated thymidine incorporation, 48 hours
Experimental: MCF-7 Proliferation Assay MCF-7 breast adenocarcinoma cells (ATCC HTB 22) were maintained in MEM (minimal essential medium, phenol red- free, Sigma, St. Louis, Mo.) supplimented with 10% fetal bovine serum (FBS) (V/V), L-glutamine (2 mM), sodium pyruvate (1 mM), HEPES {(N-[2-hydroxyethyl]piperazine-N'-[2-ethanesulfonic acid]10 mM}, non-essential amino acids and bovine insulin (1 ug/mL) (maintenance medium). Ten days prior to assay, MCF-7 cells were switched to maintenance medium supplemented with 10% dextran coated charcoal stripped fetal bovine serum (DCC-FBS) assay medium) in place of 10% FBS to deplete internal stores of steroids. MCF-7 cells were removed from maintenance flasks using cell dissociation medium (Ca++/Mg++free HBSS (phenol red-free) supplemented with 10 mM HEPES and 2 mM EDTA). Cells were washed twice with assay medium and adjusted to 80,000 cells/mL. Approximately 100 μL (8,000 cells) were added to flat-bottom microculture wells (Costar 3596) and incubated at 37° C. in a 5% CO2 humidified incubator for 48 hours to allow for cell adherence and equilibration after transfer. Serial dilutions of drugs or DMSO as a diluent control were prepared in assay medium and 50 μL transferred to triplicate microcultures followed by 50 μL assay medium for […]. After an additional 48 hours at 37° C. in a 5% CO2 humidified incubator, microcultures were pulsed with tritiated thymidine (1 uCi/well) for 4 hours. Cultures were terminated by freezing at -70° C. for 24 hours followed by thawing and harvesting of microcultures using a Skatron Semiautomatic Cell Harvester. Samples were counted by liquid scintillation using a Wallac BetaPlace β counter. Results in Table 4 below show the IC50 for certain compounds of the present invention.

[6] = 0.1 mg/kg daily for 35 days, values marked * (two tailed Student's T Test)

| Structure (SMILES) | Uterine weight (in words) ([1]; 0.1 mg/kg/day) | Uterine Weight (% increase vs. OVX) ([1]; 0.1 mg/kg daily for 4 days) [%] | Uterine EPO (V. max) ([2]; 0.1 mg/kg daily for 4 days) | eosinophil infiltration into the uterus (in words) ([2]; stromal layer of ovariectomized rats) | Tibia BMD pQCT (% protection) [3, 6] [%] | prevention of bone loss (in words) ([3]; ovariectomized rats, 35 days) | Serum cholesterol (in words) ([4]; 0.1 mg/kg/day) | Serum Cholesterol (% decrease vs. OVX) ([4]; 0.1 mg/kg daily for 4 days) [%] | Uterine Weight (% increase vs. OVX) ([1]; 1.0 mg/kg daily for 4 days) [%] | Uterine Weight (% increase vs. OVX) ([1]; 10.0 mg/kg daily for 4 days) [%] | Uterine EPO (V. max) ([2]; 1.0 mg/kg daily for 4 days) | Uterine EPO (V. max) ([2]; 10.0 mg/kg daily for 4 days) | IC50 [5] [nM] | Serum Cholesterol (% decrease vs. OVX) ([4]; 1.0 mg/kg daily for 4 days) [%] | Serum Cholesterol (% decrease vs. OVX) ([4]; 10.0 mg/kg daily for 4 days) [%] | Tibia BMD pQCT (% protection) ([3]; 0.01 mg/kg daily for 35 days) [%] | Tibia BMD pQCT (% protection) ([3]; 1.0 mg/kg daily for 35 days) [%] | Tibia BMD pQCT (% protection) ([3]; 3.0 mg/kg daily for 35 days, value marked * (two tailed Student's T Test)) [%] |
| --- | --- | --- | --- | --- | --- | --- | --- | --- | --- | --- | --- | --- | --- | --- | --- | --- | --- | --- |
| C#C[C@]1(O)CC[C@H]2[C@@H]3CCc4cc(O)ccc4[C@H]3CC[C@@]21C [EE2, 17α-ethynyl estradiol, reference compound] | uterine weight was substantially greater than the uterine weight of ovariectomized test animals | 86.3 | 116.4 | substantial, expected increase in eosinophil infiltration | 60.9 | prevented this loss | caused a decrease in serum cholesterol | 81.4 |  |  |  |  |  |  |  |  |  |  |
| CCc1ccc2cc(O)ccc2c1Cc1ccc(OCCN2CCCCC2)cc1 [Example 1, [2-Ethyl-6-hydroxynaphthalen-1-yl][4-[2-(1-piperdinyl)ethoxy]phenyl]methanehydrochloride] |  | -3.3 | 6.6 |  |  |  |  | 20.3 | 3.0 | 60.2 | 12.0 | 12.0 | 10 | 23.1 | 38.6 |  |  |  |
| Oc1ccc2c(Cc3ccc(OCCN4CCCCC4)cc3)c([C@H]3CC[C@H](O)CC3)ccc2c1 [Example 2, hydrochloride] |  | 32.0 | 4.8 |  |  |  |  | 57.8 | 17.1 | 6.7 | 4.8 | 3.6 | 1 | 71.8 | 34.9 |  |  |  |
| COc1ccc2c(c1)CCC(C1CCCCC1)=C2C(=O)c1ccc(OCCN2CCCCC2)cc1 [Example 4, [3,4-Dihydro-2-cyclohexyl-6-methoxynaphthalen-1-yl][4-[2-(1-piperdinyl)ethoxy]phenyl]methanone] |  | 32.0 | 2.1 |  |  |  |  | 65.5 | 30.7 | 24.2 | 8.1 | 10.6 |  | 56.6 | 58.3 |  |  |  |
| COc1ccc2c(Cc3ccc(OCCN4CCCCC4)cc3)c(C3CCCCC3)ccc2c1 [Example 5, [2-Cyclohexyl-6-methoxynaphthalen-1-yl][4-[2-(1-piperdinyl)ethoxy]phenyl]methane] |  | 21.2 | 21.2 |  |  |  |  | 77.6 | 10.4 | 6.4 | 4.2 | 5.3 | 10 | 76.3 | 65.8 |  |  |  |
| Oc1ccc2c(Cc3ccc(OCCN4CCCCC4)cc3)c(C3CCCCC3)ccc2c1 [Example 6, [2-Cyclohexyl-6-hydroxynaphthalen-1-yl][4-[2-(1-piperdinyl)ethoxy]phenyl]methane hydrochloride] |  | 65.7 | 17.7 |  | 52.6 |  |  | 57.4 | 22.8 | 22.0 | 4.2 | 4.5 | 0.6 | 46.8 | 63.9 | 23.1 | 30.1 | 59.6 |
